This note sets out measurements from paper PMC8373216, “Development and Preclinical Evaluation of New Inhaled Lipoglycopeptides for the Treatment of Persistent Pulmonary Methicillin-Resistant Staphylococcus aureus Infections” (Antimicrobial Agents and Chemotherapy, 2021).

The subject of one data set is E. coli. Description: Expanded panel broth microdilution MIC. To be noted: Escherichia coli. Type of data set: cell-based. Background: Broth dilution looks for growth in wells or tubes with falling amounts of substance.
Another data set deals with P. mirabilis. Put plainly: Expanded panel broth microdilution MIC. It is filed as cell-based. To be noted: Proteus mirabilis, ATCC43071.
Another data set relates to C. freundii. Description: Expanded panel broth microdilution MIC. Type of data set: cell-based. To be noted: Citrobacter freundii.
In another data set the test system is S. marcescens. Put plainly: Expanded panel broth microdilution MIC. Type of data set: cell-based. The note with it: Serratia marcescens, ATCC43862.
The next data set concerns Haemophilus influenzae. Put plainly: Expanded panel broth microdilution MIC. It is filed as cell-based.
In a further data set the test system is H. parainfluenzae. Description: Expanded panel broth microdilution MIC. To be noted: Haemophilus parainfluenzae. Type of data set: cell-based.
In a further data set the test system is Eggerthella lenta. Description: Expanded panel broth microdilution MIC. It is filed as cell-based.
A further data set has as its system THP-1 cells. Put plainly: In vitro cellular accumulation. Type of data set: cell-based. To be noted: 24 h, 10 to 75 μg/ml. On the procedure: THP-1 cells (TIB-202; ATCC, Manassas, VA; 1 × 10^6 cells/well) were differentiated into macrophages by incubating in 10% fetal bovine serum (FBS; HyClone, Marlborough, MA) supplemented RPMI 1640 medium (HyClone) with 50 ng/ml of phorbol 12-myristate 13-acetate (PMA; Sigma-Aldrich, St. Louis, MO) for 24 h. After a 24 h incubation in fresh medium, cells were treated with RV lipoglycopeptides or comparator drugs at target concentrations in the range of 10 to 75 μg/ml and incubated at 37°C for 24 h. For sample collection, mixtures of cells and medium were transferred into a 1.5-ml microcentrifuge tube followed by centrifugation at 330 × g for 8 min at 4°C. The supernatant was collected to measure the extracellular portion. After washing three times using 1 ml of tris-buffered saline (TBS, 1× solution, pH 7.4, Fisher BioReagents, Waltham, MA), the cell pellet was resuspended in TBS to measure the cellular drug concentration. To confirm mass balance, drug concentrations were also measured from the supernatant and an organic solvent mixture (30% acetonitrile in water) that was used to extract residual drug from the empty wells after the cell mixture was removed. […] Cellular accumulation was expressed as μg of drug per the mass of cell protein measured using a Pierce BCA protein assay kit (Thermo Scientific, Waltham, MA).

Data set [1] is classed as physicochemical. The note with it: pH 8. On the procedure: (§1) 40 to the primary metabolite.
(§2) 41 percent degradation is defined as follows:
(§3) [LLLLPPLL ] + [MMPPPPDDMM DDMMDDPPPP ]
(§4) 45 Enzymes studied include :
(§5) 108 Table S1: Enzyme hydrolysis of RV62 and RV94 was measured as a function of time in PBS (pH 8) at 37
(§6) 109 °C. Control samples in the absence of enzyme were included as […]. Samples were analyzed
(§7) 110 by HPLC detecting the parent RV derivative (RV62 or RV94).
(§8) RV Percent RV derivative remaining in HPLC chromatograph, % […]

Data set [2] concerns the target T1, Protease from Bacillus Lichenformis (Bacillus licheniformis, UniProt P00780).
T1 construct: purchased Sigma Aldrich P5380; host or cells: Bacillus licheniformis
Description: Enzyme hydrolysis. It is filed as in vitro ADME. To be noted: Bacillus Lichenformis protease 5 U/mL. How it is done:
as §1, §2, §3, §4, §5, §6, §7, §8

Another data set deals with T2, Protease from Papain (Carica papaya, UniProt P00784).
T2 construct: purchased Sigma Aldrich P4762; host or cells: papaya latex
Put plainly: Enzyme hydrolysis. Type of data set: in vitro ADME. To be noted: Papain 5 U/mL. On the procedure: as §1, §2, §3, §4, §5, §6, §7, §8

In brackets after ≈: the same amount, converted by molar mass. Read-outs that look alike come from different tables or passages of the source.

T1 sequence (P00780 106-379): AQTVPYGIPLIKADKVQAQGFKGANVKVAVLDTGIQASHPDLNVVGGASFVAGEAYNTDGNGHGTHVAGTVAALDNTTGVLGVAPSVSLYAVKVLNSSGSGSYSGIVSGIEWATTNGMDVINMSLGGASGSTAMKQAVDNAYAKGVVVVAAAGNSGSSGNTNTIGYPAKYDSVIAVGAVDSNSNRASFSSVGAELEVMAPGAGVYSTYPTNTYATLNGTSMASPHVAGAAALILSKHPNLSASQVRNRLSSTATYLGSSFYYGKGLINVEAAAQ
T2 sequence (P00784 134-345): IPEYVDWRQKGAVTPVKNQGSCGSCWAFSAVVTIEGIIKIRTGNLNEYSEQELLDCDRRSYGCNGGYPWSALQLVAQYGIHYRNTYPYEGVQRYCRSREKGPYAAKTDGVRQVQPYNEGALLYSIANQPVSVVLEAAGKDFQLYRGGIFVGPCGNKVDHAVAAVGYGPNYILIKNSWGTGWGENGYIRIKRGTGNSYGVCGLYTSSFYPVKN

As for `CCCCCCCCCCNCCN[C@@]1(C)C[C@H](O[C@H]2[C@H](Oc3c4cc5cc3Oc3ccc(cc3Cl)[C@@H](O)[C@@H](NC(=O)[C@@H](CC(C)C)NC)C(=O)N[C@@H](CC(N)=O)C(=O)N[C@H]5C(=O)N[C@H]3C(=O)N[C@H](C(=O)N[C@H](C(=O)O)c5cc(O)cc(O)c5-c5cc3ccc5O)[C@H](O)c3ccc(c(Cl)c3)O4)O[C@H](CO)[C@@H](O)[C@@H]2O)O[C@@H](C)[C@H]1O` [RV40, N-decylaminoethylvancomycin], the MIC with E. coli (ATCC25922, E. coli ATCC 25922, non-ESBL, read-out: MIC) is greater than 64 µg/mL; in the data set on E. coli (E. coli MMX 5684, ESBL (TEM-10), read-out: MIC) it was greater than 64 µg/mL; in the data set with P. mirabilis (P. mirabilis ATCC 43071, read-out: MIC), greater than 64 µg/mL; in the data set with C. freundii (C. freundii MMX 6602, read-out: MIC), greater than 64 µg/mL; in the data set with S. marcescens (S. marcescens ATCC 43862, read-out: MIC), greater than 64 µg/mL; with Haemophilus influenzae (ATCC49247, H. influenzae ATCC 49247, BL-, read-out: MIC), 64 µg/mL (≈ 39.2 µM). The MIC is 32 µg/mL (≈ 19.6 µM) with Haemophilus influenzae (H. influenzae MMX 7988, BL+, read-out: MIC) and 16 µg/mL (≈ 9.8 µM) in the data set with H. parainfluenzae (H. parainfluenzae MMX 2529, read-out: MIC). For the same molecule, the MIC range against Haemophilus influenzae is 16 to 32 µg/mL.

Turning to `CN[C@H](CC(C)C)C(=O)N[C@H]1C(=O)N[C@@H](CC(N)=O)C(=O)N[C@H]2C(=O)N[C@H]3C(=O)N[C@H](C(=O)N[C@H](C(=O)O)c4cc(O)cc(O)c4-c4cc3ccc4O)[C@H](O)c3ccc(c(Cl)c3)Oc3cc2cc(c3O[C@@H]2O[C@H](CO)[C@@H](O)[C@H](O)[C@H]2O[C@H]2C[C@](C)(N)[C@H](O)[C@H](C)O2)Oc2ccc(cc2Cl)[C@H]1O` [Vancomycin, vancomycin], the MIC against Eggerthella lenta was 0.5 µg/mL (≈ 0.345 µM); in the data set with Eggerthella lenta (ATCC43055), 0.5 µg/mL (≈ 0.345 µM); in the data set with E. coli it was greater than 64 µg/mL; with E. coli (ATCC25922) it was greater than 64 µg/mL; in the data set on P. mirabilis it was greater than 64 µg/mL; in the data set with C. freundii, greater than 64 µg/mL. Moreover, the MIC in the data set on S. marcescens is greater than 64 µg/mL; against Haemophilus influenzae it was 64 µg/mL (≈ 44.2 µM); against Haemophilus influenzae (ATCC49247), greater than 64 µg/mL; with H. parainfluenzae it was 64 µg/mL (≈ 44.2 µM).

Turning to `CCCCCCCCCCNC(=O)CNC1(C)CC(OC2C(Oc3c4cc5cc3Oc3ccc(cc3Cl)C(O)C3NC(=O)C(NC(=O)C5NC(=O)C(CC(N)=O)NC(=O)C(NC(=O)C(CC(C)C)NC)C(O)c5ccc(c(Cl)c5)O4)c4ccc(O)c(c4)-c4c(O)cc(O)cc4C(C(=O)O)NC3=O)OC(CO)C(O)C2O)OC(C)C1O` (centres unmarked) [RV94], the MIC with Eggerthella lenta (ATCC43055, E. lenta ATCC 43055, read-out: MIC) was 0.008 µg/mL (≈ 0.00486 µM); in the data set with Eggerthella lenta (E. lenta, 1 isolate, read-out: MIC) it was 0.008 µg/mL (≈ 0.00486 µM). The “Cellular accumulation, fold improvement over telavancin” value with THP-1 cells came to 4 fold. In addition, the “Cellular accumulation, fold improvement over vancomycin” value in the data set on THP-1 cells came to 2 fold. The “Percent RV derivative remaining in HPLC chromatograph” value stood at 99.74% in [1] (0 h); 99.54% in data set [1] (1 h); 98.89% in data set [1] (24 h); 99.47% in data set [2] (1 h); 99.43% in [2] (24 h); 99.76% in [2] (PBS pH 8, 37 °C, 0 h). The “Percent RV derivative remaining in HPLC chromatograph” value came out at 99.39% on Protease from Papain (1 h); 98.31% on Protease from Papain (24 h); 99.46% at Protease from Papain (PBS pH 8, 37 °C, 0 h).
